Where two headings read alike, the source gives them in different places.
Key:
HL-60 W6899 cells = assay: HL-60 bioassay, microculture 5 days, clonogenicity estimated by MTT assay (Table 1); format: cell-based, human; conditions: Homo sapiens, HL-60, parameters are approximations
Experimental: An assay of biological activity of C-MED-100®'s active ingredient is prepared as follows: HL-60 […] cells are exposed in microculture at 5000 cells per well (96-well plates) for 5 days at 37 ? C. in a CO2 incubator. After incubation, the cells are washed with saline and clonogenicity estimated by MTT assay.

Jurkat T cells = assay: Jurkat T cell death and apoptosis (Annexin V / 7AAD); format: cell-based, human; conditions: 24 hours, concentrations inhibiting NF-κB
Experimental: FIG. 5A illustrates Jurkat T that are cells transfected with a NF-κB reporter construct were pre-cultured with various concentrations of QA or C-MED-100® for two hours. PMA (50 ng/ml) and ionomycin (1 μM) were thereafter added and the cells incubated for another six hours. The mean induction of luciferase activity in triplicate cultures from one representative experiment out of four are shown (left panel). QA induced no cell death or apoptosis in Jurkat T cells at concentrations which inhibited NF-κB activity. Jurkat T cells were incubated with various concentrations of QA for 24 hours and thereafter stained with Annexin V and 7AAD before analysis by flow cytometry. […]
Cell cultures: Raji human Burkitt's lymphoma (CCL-86), Jurkat human acute T-cell leukemia (TIB-152), 70Z/3 mouse pre-B lymphocyte cell line (TIB-158), or mouse spleen cells were used in the experiments. […] The number of Raji cells in duplicate cultures were determined with a Coulter Z1 cell counter (Beckman Coulter Inc, Fullerton, Calif., USA) three times each. The number of viable and dead cells were determined using trypan blue exclusion, by counting three independent samples from duplicate cultures. […] Proliferation was detected by measuring thymidine incorporation after a 4 hours pulse with 1 μCi ^3[H]-thymidine (Amersham Pharmacia).

C57BL/6 mice = assay: Mice treated via drinking water for 21 days: spleen cells, blood cells, weights; format: in vivo, mouse
Experimental: Mice were treated with indicated concentrations of QA or C-MED-100® in the drinking water for 21 days, sacrificed and absolute number of spleen cells counted using trypan blue exclusion. The presented data are mean cell numbers±S.D. pooled from five experiments (water, n=21; C-MED-100® 4 mg/ml, n=24; C-MED-100® 8 mg/ml, n=9; QA 1 mg/ml, n=9; QA 2 mg/ml, n=22; QA 4 mg/ml, n=10). Statistically significant differences compared to control mice supplemented with tap water are indicated. […] The data are presented as the mean number of cells/ml±S.D. from five experiments (water, n=21; C-MED-100® 4 mg/ml, n=24; C-MED-100® 8 mg/ml, n=9; QA 1 mg/ml, n=9; QA 2 mg/ml, n=22; QA 4 mg/ml, n=10). Statistically significant differences compared to control mice supplemented with tap water are indicated. Materials and Methods: C57BL/6 females were bought from […], Denmark and used in experiments at an age of 6-10 weeks. The animals were kept in a SPF facility at Lund University, Lund, Sweden. The use of laboratory animals complies with the guidelines of the European Community and was approved of by the local ethical committee. In vivo treatment: Mice were fed with C-MED-100® and QA (Sigma-Aldrich), dissolved in autoclaved tap water at indicated concentrations, for 21 days. The drinking water bottles were changed every third day. The animals were then sacrificed, the spleens removed and blood samples collected. The blood samples were analyzed in a Sysmex KX-21N cytometer (Sysmex Corporation, Kobe, Japan).

O=C(O)C1(O)CC(O)C(O)C(O)C1 (centres unmarked) [QA, 1,3,4,5-tetrahydroxy-cyclohexanecarboxylic acid] was tested, and the IC50 (HL-60 W6899 cells; after 1% aqueous ammonia, read-out: Bioassay after 1% aqueous ammonia IC50 HL-60 cells) was greater than 3000 µg/mL, the IC50 (HL-60 W6899 cells; read-out: Bioassay efficacy using IC50 in HL-60 cells) was greater than 3000 µg/mL and the “cell death in Jurkat T cells” value (Jurkat T cells) was “did not induce cell death”. The “number of spleen cells” value (C57BL/6 mice; 2 mg/ml in drinking water, 21 days) was “significantly increased number of spleen cells”, the body weight (C57BL/6 mice; 4 mg/ml in drinking water) was “significantly reduced” and the “WBC and blood lymphocytes in peripheral blood” value (C57BL/6 mice; 4 mg/ml in drinking water, vs normal control animals) was “this increase was significant”. The “absolute numbers of lymphocyte subsets CD4+ T cells, CD8+ T cells and B cells in spleen” value (C57BL/6 mice; drinking water 21 days (FIG. 6B)) was “this was also the case” and the “WBC, blood lymphocytes, RBC in peripheral blood” value (C57BL/6 mice; drinking water 21 days, indicated concentrations) was “increasing number of WBC and blood lymphocytes”.
